Data reported in patent US20140057311A1, “Device For High Throughput Investigations Of Multi-Cellular Interactions” (priority 2010, published 2014).

Tested on: MDA-MB 231 human breast carcinoma cells
Assay: Tumor cell migration direction under interstitial flow in 3D collagen I gel
Type: cell-based
Details: Src kinase inhibited with PP2
Excerpt: Cell culture system design and verification of interstitial flow field. A microfluidic cell culture system to culture breast cancer cells (MDA-MB 231) in a 3D collagen I matrix and to subject these cells to a controlled level of interstitial flow was employed. The system consists of two channels separated by a region containing single cells suspended in collagen I gel (FIG. 16A). By applying a hydrostatic pressure gradient across the gel region, a consistent flow field is generated. FEM software was used to solve Brinkman's equation for flow through porous medium for our system geometry (FIG. 16B). […] From the bead tracking data, the hydraulic permeability of 2 mg/ml collagen I gel was determined to be 1.55×10-13 m2, similar to previously published values.
Interstitial flow induced a directional bias in cellular migration. […] To quantify the migration direction of cell populations, two metrics are presented. […] To determine directional bias of migration along streamlines, a “directional migration metric” was computed that scored cells with a +1 if they migrated in the direction of flow and a −1 if they migrated against the flow (FIG. 17E). […]
Cells were incubated overnight at 37° C. […] Devices were allowed to reach thermal equilibrium at 37° C. before imaging (see Supplementary Methods in SI Appendix for details on imaging and data quantification). […]

## CC(C)(C)n1nc(-c2ccc(Cl)cc2)c2c(N)ncnc21 [PP2]
  direction of cell migration under interstitial flow: cells migrated randomly, with no biased migration upstream or downstream
